# Activity calls are given as the source filed them. The calls are words filed in the database; no cut-off is given here.
# Columns and labels:
# [1] = test system: Staphylococcus aureus; assay: Antibacterial activity against methicillin-resistant Staphylococcus aureus ATCC 4330 after 16 to 18 hrs by microbroth dilution method; assay type: functional; conditions: time 16-18 hrs
# [2] = test system: Staphylococcus aureus; assay: Bactericidal activity against methicillin-resistant Staphylococcus aureus ATCC 4330 assessed as reduction in bacterial counts at 2X MIC within 0.5 hrs by time-kill kinetic assay; assay type: functional
# [3] = test system: Staphylococcus aureus; assay: Bactericidal activity against methicillin-resistant Staphylococcus aureus ATCC 4330 assessed as reduction in bacterial counts at 4X MIC by time-kill kinetic assay; assay type: functional, organism-based
# [4] = test system: Staphylococcus aureus; assay: Bactericidal activity against methicillin-resistant Staphylococcus aureus ATCC 4330 assessed as reduction in bacterial counts at 1 to 4X MIC within 24 hrs by time-kill kinetic assay; assay type: functional
# [5] = test system: Staphylococcus aureus; assay: Bactericidal activity against methicillin-resistant Staphylococcus aureus ATCC 4330 assessed as inhibition of bacterial regrowth at 2X MIC after 24 hrs by time-kill kinetic assay; assay type: functional, organism-based
# [6] = Hemolytic activity in mouse erythrocytes assessed as hemolysis at 12.5 ug/ml relative to control; assay type: toxicity, cell-based, Erythrocyte; conditions: at 12.5 µg/mL, read-out: Activity
# [7] = Cytotoxicity against mouse RAW264.7 cells assessed as cell survival at 50 ug/ml incubated for 24 hrs by CCK-8 assay; assay type: toxicity, cell-based; conditions: at 50 µg/mL, read-out: Activity
# [8] = test system: Staphylococcus aureus; assay: Induction of membrane morphological changes in methicillin-resistant Staphylococcus aureus ATCC 4330 assessed as visible cell surface wrinkles at 4X MIC after 2 hrs by scanning electron microscopy; assay type: functional
# [9] = test system: Staphylococcus aureus; assay: Induction of membrane morphological changes in methicillin-resistant Staphylococcus aureus ATCC 4330 assessed as visible cell filaments at 4X MIC after 2 hrs by scanning electron microscopy; assay type: functional
# [10] = test system: Staphylococcus aureus; assay: Induction of membrane morphological changes in methicillin-resistant Staphylococcus aureus ATCC 4330 assessed as visible cell membrane disruption at 4X MIC after 2 hrs by transmission electron microscopy; assay type: functional
# [11] = test system: Staphylococcus aureus; assay: Induction of membrane morphological changes in methicillin-resistant Staphylococcus aureus ATCC 4330 assessed as visible cell wall fragments at 4X MIC after 2 hrs by transmission electron microscopy; assay type: functional
# [12] = test system: Staphylococcus aureus; assay: Induction of membrane morphological changes in methicillin-resistant Staphylococcus aureus ATCC 4330 assessed as ghost cells at 4X MIC after 2 hrs by transmission electron microscopy; assay type: functional
# [13] = test system: Staphylococcus aureus; assay: Induction of membrane morphological changes in methicillin-resistant Staphylococcus aureus ATCC 4330 assessed as fluorescent intensity at 1 to 4X MIC measured after 30 to 120 mins by propidium iodide staining based flow cytometry assay; assay type: functional; conditions: time 30-120 min
# [14] = test system: DNA; assay: Inhibition of methicillin-resistant Staphylococcus aureus ATCC 4330 genomic DNA migration at 3.125 to 6.25 ug/ml measured by electrophoretic mobility assay; assay type: nucleic-acid assay; conditions: dose 3.125-6.25 µg/ml
# [15] = test system: DNA; assay: Binding affinity to methicillin-resistant Staphylococcus aureus ATCC 4330 DNA assessed as induction of confirmational changes at 50 ug/ml measured by Circular dichroism assay; assay type: nucleic-acid assay; conditions: dose 50.0 µg/ml
# [16] = test system: Staphylococcus aureus; assay: Antibiofilm activity against methicillin-resistant Staphylococcus aureus ATCC 4330 assessed as inhibition of biofilm formation at 1.56 ug/ml after 24 hrs by crystal violet staining based assay relative to control; assay type: functional
# [17] = test system: Staphylococcus aureus; assay: Antibiofilm activity against methicillin-resistant Staphylococcus aureus ATCC 4330 assessed as fold change in downregulation of AgrA mRNA expression at 4X MIC after 2 hrs by qRT-PCR assay; assay type: functional
# [18] = test system: Staphylococcus aureus; assay: Antimicrobial activity against methicillin-resistant Staphylococcus aureus ATCC 4330 infected in female ICR peritonitis mouse model assessed as increase in survival rate of mouse at 10 mg/kg, ip; assay type: functional
# [19] = test system: Staphylococcus aureus; assay: Antimicrobial activity against methicillin-resistant Staphylococcus aureus ATCC 4330 infected in female ICR peritonitis mouse model assessed as survival time of mouse at 10 mg/kg, ip; assay type: functional
# [20] = test system: Staphylococcus aureus; assay: Antimicrobial activity against methicillin-resistant Staphylococcus aureus ATCC 4330 infected in female ICR peritonitis mouse model assessed as reduction in bacteria in blood at 10 mg/kg, ip; assay type: functional
# [21] = Toxicity in female ICR peritonitis mouse model infected with methicillin-resistant Staphylococcus aureus ATCC 4330 assessed as lung damage at 10 mg/kg, ip; assay type: organism-based; conditions: in vivo
# [22] = Toxicity in female ICR peritonitis mouse model infected with methicillin-resistant Staphylococcus aureus ATCC 4330 assessed as liver damage at 10 mg/kg, ip; assay type: organism-based; conditions: in vivo
# [23] = Toxicity in female ICR peritonitis mouse model infected with methicillin-resistant Staphylococcus aureus ATCC 4330 assessed as kidney damage at 10 mg/kg, ip; assay type: organism-based; conditions: in vivo
# [24] = Cytotoxicity against mouse RAW264.7 cells assessed as cell survival at 12.5 ug/ml incubated for 24 hrs by CCK-8 assay; assay type: toxicity, cell-based; conditions: at 12.5 µg/mL, read-out: Activity
# [25] = Cytotoxicity against mouse RAW264.7 cells assessed as cell survival at 25 ug/ml incubated for 24 hrs by CCK-8 assay; assay type: toxicity, cell-based; conditions: at 25 µg/mL, read-out: Activity
# [26] = test system: Staphylococcus aureus; assay: Antibiofilm activity against methicillin-resistant Staphylococcus aureus ATCC 4330 assessed as inhibition of biofilm formation at 50 ug/ml after 24 hrs by crystal violet staining based assay relative to control; assay type: functional
# [27] = test system: Staphylococcus aureus; assay: Antibiofilm activity against methicillin-resistant Staphylococcus aureus ATCC 4330 assessed as fold change in upregulation of AgrA mRNA expression at 4X MIC after 2 hrs by qRT-PCR assay; assay type: functional
# [28] = test system: Staphylococcus aureus; assay: Induction of membrane morphological changes in methicillin-resistant Staphylococcus aureus ATCC 4330 assessed as permeable cells at 1 to 4X MIC measured after 30 to 120 mins by propidium iodide staining based flow cytometry assay; assay type: functional; conditions: time 30-120 min
# [29] = test system: Staphylococcus aureus; assay: Antibiofilm activity against methicillin-resistant Staphylococcus aureus ATCC 4330 assessed as inhibition of biofilm formation at 6.25 ug/ml after 24 hrs by crystal violet staining based assay relative to control; assay type: functional
# [30] = Stability in plasma (unknown origin); assay type: ADME, cell-free; conditions: unidentified
# [31] = Cmax in rat plasma at 3 mg/kg, iv; assay type: ADME, organism-based; parameters: dose 3 mg/kg, route iv
# [32] = Cmax in rat plasma at 15 mg/kg, IG; assay type: ADME, organism-based; parameters: dose 15 mg/kg, route ig; conditions: po
structure (smiles),measurement,setting,value
CCCCNC(=O)c1ccc2[nH]c3c(C(=O)c4ccccc4Br)nccc3c2c1,MIC,[1],> 200 µg/mL
O=C(c1ccccc1Cl)c1nccc2c1[nH]c1ccccc12,MIC,[1],> 200 µg/mL
Cc1ccc2[nH]c3c(C(=O)c4ccccc4Br)nccc3c2c1,MIC,[1],> 200 µg/mL
O=C(Nc1cccc2ccccc12)c1ccc2[nH]c3c4[n+](ccc3c2c1)-c1ccccc1C4=O.[Br-],MIC,[1],0.098 µg/mL
same,Activity,[2],1.9 log10CFU/ml
same,Activity,[3],Active
same,Activity,[4],2 log10CFU/ml
same,Activity,[5],Active
same,hemolysis at 12.5 ug/ml,[6],0%
same,"viability at 24 h, 50 ug/ml",[7],98.4%
same,Activity,[8],Active
same,Activity,[9],Active
same,Activity,[10],Active
same,Activity,[11],Active
same,Activity,[12],Active
same,Activity,[13],19.3%
same,inhibition of DNA migration,[14],Active
same,Activity,[15],Active
same,inhibition at 1.56 µg/mL,[16],78.9%
same,fold change (FC),[17],0.1
same,Activity,[18],20%
same,Survival,[19],2 days
same,Activity,[20],Active
same,Activity,[21],Non-Toxic
same,Activity,[22],Non-Toxic
same,Activity,[23],Non-Toxic
NC(=O)c1ccc2[nH]c3c(C(=O)c4ccccc4Br)nccc3c2c1,MIC,[1],> 200 µg/mL
O=C1c2ccccc2-[n+]2ccc3c([nH]c4ccccc43)c21.[Br-],MIC,[1],0.39 µg/mL
same,Activity,[2],0 log10CFU/ml
same,Activity,[4],2 log10CFU/ml
same,hemolysis at 12.5 ug/ml,[6],0%
same,"viability at 24 h, 12.5 ug/ml",[24],91.7%
same,"viability at 24 h, 25 ug/ml",[25],100%
same,"viability at 24 h, 50 ug/ml",[7],100%
same,inhibition at 50 µg/mL,[26],27.4%
same,fold change (FC),[27],1.67
same,Activity,[18],20%
same,Survival,[19],2 days
same,Activity,[21],Non-Toxic
same,Activity,[22],Non-Toxic
same,Activity,[23],Non-Toxic
Cc1ccc2[nH]c3c4[n+](ccc3c2c1)-c1ccccc1C4=O,Activity,[3],Active
same,Activity,[5],Active
same,Activity,[8],Active
same,Activity,[9],Active
same,Activity,[10],Active
same,Activity,[11],Active
same,Activity,[12],Active
same,Activity,[28],1.11%
same,inhibition of DNA migration,[14],Active
same,Activity,[15],Active
O=C(c1ccccc1Br)c1nccc2c1[nH]c1ccc(Br)cc12,MIC,[1],> 200 µg/mL
CN[C@H](CC(C)C)C(=O)N[C@H]1C(=O)N[C@@H](CC(N)=O)C(=O)N[C@H]2C(=O)N[C@H]3C(=O)N[C@H](C(=O)N[C@H](C(=O)O)c4cc(O)cc(O)c4-c4cc3ccc4O)[C@H](O)c3ccc(c(Cl)c3)Oc3cc2cc(c3O[C@@H]2O[C@H](CO)[C@@H](O)[C@H](O)[C@H]2O[C@H]2C[C@](C)(N)[C@H](O)[C@H](C)O2)Oc2ccc(cc2Cl)[C@H]1O [VANCOMYCIN],Activity,[2],0.1 log10CFU/ml
same,Activity,[3],Active
same,Activity,[4],2 log10CFU/ml
Cc1ccc2[nH]c3c4[n+](ccc3c2c1)-c1ccccc1C4=O.[Br-],MIC,[1],0.195 µg/mL
same,Activity,[2],1.7 log10CFU/ml
same,Activity,[4],2 log10CFU/ml
same,hemolysis at 12.5 ug/ml,[6],0%
same,"viability at 24 h, 12.5 ug/ml",[24],17.7%
same,"viability at 24 h, 25 ug/ml",[25],56.3%
same,"viability at 24 h, 50 ug/ml",[7],69.8%
same,inhibition at 6.25 µg/mL,[29],65.4%
same,fold change (FC),[17],0.71
same,Activity,[18],20%
same,Survival,[19],2 days
same,Activity,[20],92%
same,Activity,[21],Non-Toxic
same,Activity,[22],Non-Toxic
same,Activity,[23],Non-Toxic
O=C(c1ccccc1Br)c1nccc2c1[nH]c1ccccc12,MIC,[1],> 200 µg/mL
O=C(O)c1ccc2[nH]c3c4[n+](ccc3c2c1)-c1ccccc1C4=O.[Br-],MIC,[1],6.25 µg/mL
same,Activity,[2],0 log10CFU/ml
same,Activity,[3],Active
same,Activity,[4],2 log10CFU/ml
O=C1c2ccccc2-[n+]2ccc3c([nH]c4ccccc43)c21.[Cl-] [FASCAPLYSIN CHLORIDE],MIC,[1],0.78 µg/mL
same,Stability,[30],94.9%
same,Activity,[2],0 log10CFU/ml
same,Activity,[4],2 log10CFU/ml
same,Cmax,[31],414 ng/mL
same,Cmax,[32],65.2 ng/mL
Cc1ccc2[nH]c3c(C(=O)c4ccccc4Cl)nccc3c2c1,MIC,[1],> 200 µg/mL
NC(=O)c1ccc2[nH]c3c4[n+](ccc3c2c1)-c1ccccc1C4=O.[Br-],MIC,[1],200 µg/mL
O=C(Nc1cccc2ccccc12)c1ccc2[nH]c3c(C(=O)c4ccccc4Br)nccc3c2c1,MIC,[1],> 200 µg/mL
O=C1c2ccccc2-[n+]2ccc3c([nH]c4ccccc43)c21,Activity,[3],Active
same,Activity,[5],Active
same,Activity,[8],Active
same,Activity,[9],Active
same,Activity,[10],Active
same,Activity,[11],Active
same,Activity,[12],Active
same,Activity,[28],1.11%
same,inhibition of DNA migration,[14],Active
same,Activity,[15],Active
same,Activity,[20],Active
Cc1ccc2[nH]c3c4[n+](ccc3c2c1)-c1ccccc1C4=O.[Cl-],MIC,[1],0.78 µg/mL
same,Activity,[2],0.1 log10CFU/ml
same,Activity,[4],2 log10CFU/ml
CCCCNC(=O)c1ccc2[nH]c3c4[n+](ccc3c2c1)-c1ccccc1C4=O.[Br-],MIC,[1],6.25 µg/mL
same,Activity,[2],0.5 log10CFU/ml
same,Activity,[3],Active
same,Activity,[4],2 log10CFU/ml
same,Activity,[5],Active
O=C1c2ccccc2-[n+]2ccc3c([nH]c4ccc(Br)cc43)c21.[Br-],MIC,[1],0.098 µg/mL
same,Activity,[2],2.4 log10CFU/ml
same,Activity,[3],Active
same,Activity,[4],2 log10CFU/ml
same,Activity,[5],Active
same,hemolysis at 12.5 ug/ml,[6],0%
same,"viability at 24 h, 12.5 ug/ml",[24],72.3%
same,"viability at 24 h, 25 ug/ml",[25],86.5%
same,"viability at 24 h, 50 ug/ml",[7],92.9%
same,Activity,[8],Active
same,Activity,[9],Active
same,Activity,[10],Active
same,Activity,[11],Active
same,Activity,[12],Active
same,Activity,[13],19.3%
same,inhibition of DNA migration,[14],Active
same,Activity,[15],Active
same,inhibition at 1.56 µg/mL,[16],74.9%
same,fold change (FC),[27],2.12
same,Activity,[18],20%
same,Survival,[19],2 days
same,Activity,[20],Active
same,Activity,[21],Non-Toxic
same,Activity,[22],Non-Toxic
same,Activity,[23],Non-Toxic
O=C(O)c1ccc2[nH]c3c(C(=O)c4ccccc4Br)nccc3c2c1,MIC,[1],> 200 µg/mL
